Reference: patent publication US20110201603A1, “Novel Acylaminobenzamide Derivatives” (Bayer CropScience AG, priority 2008, published 2011)

Assays:
[1] = tested on: tobacco cutworm (Spodoptera litura) larvae; experiment: Test against tobacco cutworm (Spodoptera litura) larvae, leaf dip; format: in vivo; settings: active compound concentration of 100 ppm; third-instar larvae on sweet potato leaves; after 7 days
Procedure: (§1) Unless not mentioned otherwise, the test solutions were prepared as follows:
(§2) Containing as solvent: Dimethylformamide, 3 parts by weight; and as emulsifier: Polyoxyethylene alkyl phenyl ether, 1 part by weight
(§3) To prepare the test solution, 1 part by weight of an active compound is mixed with the above-mentioned amount of solvent containing the above-mentioned amount of emulsifier, and the mixture is diluted with water to the desired concentration.
The leaves of sweet potato were immersed in the test solution at the appropriate concentration, and the leaves were dried in air. The leaves were then placed in a petri dish having a diameter of 9 cm, and ten third-instar larvae of tobacco cutworm were released therein. The petri dish was placed in a temperature-controlled chamber at 25° C. After 2 days and 4 days sweet potato leaves were additionally added. After 7 days, the number of dead larvae was counted to calculate the insecticidal activity. An insecticidal activity of 100% means that all larvae were killed, whereas an insecticidal activity of 0% means that no larva was killed. In the current test, the results of two petri dishes for each partition were averaged.

[2] = tested on: cucurbit leaf beetle (Aulacophora femoralis); experiment: Test against cucurbit leaf beetle (Aulacophora femoralis), leaf dip; format: in vivo; settings: active compound concentration of 100 ppm; second-instar larvae on cucumber leaves; after 7 days
Procedure: as §1, §2, §3
Cucumber leaves were immersed in the test solution at the appropriate concentration, and the leaves were dried in air. The leaves were then placed in a plastic cup containing sterilized black soil, and five second-instar larvae of cucurbit leaf beetle were released therein. The plastic cup was placed in a temperature-controlled chamber at 25° C. After 7 days, the number of dead larvae was counted, and thus the insecticidal activity was calculated. An insecticidal activity of 100% means that all beetles were killed, whereas an insecticidal activity of 0% means that no beetle was killed.

Compound	insecticidal activity [1] [%]	insecticidal activity [2] [%]
O=C(Nc1c(Br)cc(C(c2ccccc2)(n2ccc(C(F)(F)F)n2)C(F)(F)F)cc1Br)c1cccc(NC(=O)c2cccnc2Cl)c1 (single isomer, unassigned) [2-99]	100	–
O=C(Nc1c(Br)cc(C(c2ccccc2)(n2ccc(C(F)(F)F)n2)C(F)(F)F)cc1Br)c1cccc(NC(=O)c2cccnc2Cl)c1 (single isomer, unassigned) [2-100]	–	100
CCOC(c1cc(I)c(NC(=O)c2cccc(NC(=O)CCCl)c2)c(I)c1)(C(F)(F)F)C(F)(F)F [1-23]	100	–
CCCOC(c1cc(I)c(NC(=O)c2cccc(NC(=O)c3ccc(C)nc3Cl)c2)c(I)c1)(C(F)(F)F)C(F)(F)F [1-63]	100	–
C#CCOC(c1cc(I)c(NC(=O)c2cccc(NC(=O)c3ccccc3)c2)c(I)c1)(C(F)(F)F)C(F)(F)F [1-79]	100	100
CC#CCOC(c1cc(I)c(NC(=O)c2cccc(NC(=O)c3ccccc3)c2)c(I)c1)(C(F)(F)F)C(F)(F)F [1-83]	100	100
CC#CCOC(c1cc(I)c(NC(=O)c2cccc(NC(=O)c3ccc(F)cc3)c2)c(I)c1)(C(F)(F)F)C(F)(F)F [1-84]	100	100
CC#CCOC(c1cc(I)c(NC(=O)c2cccc(NC(=O)c3cccnc3Cl)c2)c(I)c1)(C(F)(F)F)C(F)(F)F [1-85]	100	100
CSCCOC(c1cc(I)c(NC(=O)c2cccc(NC(=O)c3cccnc3Cl)c2)c(I)c1)(C(F)(F)F)C(F)(F)F [1-104]	100	–
CCc1cc(C(Oc2ccccc2)(C(F)(F)F)C(F)(F)F)cc(C)c1NC(=O)c1cccc(NC(=O)c2cccnc2Cl)c1 [1-105]	–	100
CCc1cc(C(Oc2cccc(Cl)c2)(C(F)(F)F)C(F)(F)F)cc(C)c1NC(=O)c1cccc(NC(=O)c2cccnc2Cl)c1 [1-108]	100	100
CCc1cc(C(Oc2cccc(C(F)(F)F)c2)(C(F)(F)F)C(F)(F)F)cc(C)c1NC(=O)c1cccc(NC(=O)c2cccnc2Cl)c1 [1-110]	100	–
Cc1cc(C(Oc2ccnc(C(F)(F)F)c2)(C(F)(F)F)C(F)(F)F)cc(C)c1NC(=O)c1cccc(NC(=O)c2cccnc2Cl)c1 [1-111]	100	–
CCc1cc(C(Oc2ccnc(C(F)(F)F)c2)(C(F)(F)F)C(F)(F)F)cc(C)c1NC(=O)c1cccc(NC(=O)c2cccnc2Cl)c1 [1-112]	100	–
CCc1cc(C(ON=Cc2ccccc2)(C(F)(F)F)C(F)(F)F)cc(C)c1NC(=O)c1cccc(NC(=O)c2cccnc2Cl)c1 [1-125]	100	–
CCc1cc(C(Oc2ccc(F)cc2)(C(F)(F)F)C(F)(F)F)cc(C)c1NC(=O)c1cccc(NC(=O)c2cccnc2Cl)c1 [1-128]	100	100
CCc1cc(C(Oc2ccc(Br)cc2)(C(F)(F)F)C(F)(F)F)cc(C)c1NC(=O)c1cccc(NC(=O)c2cccnc2Cl)c1 [1-129]	100	100
CCc1cc(C(Oc2ccc(C(F)(F)F)cc2)(C(F)(F)F)C(F)(F)F)cc(C)c1NC(=O)c1cccc(NC(=O)c2cccnc2Cl)c1 [1-130]	100	100
CCc1cc(C(Oc2ccc(OC(F)(F)F)cc2)(C(F)(F)F)C(F)(F)F)cc(C)c1NC(=O)c1cccc(NC(=O)c2cccnc2Cl)c1 [1-131]	100	100
CCc1cc(C(ON=Cc2ccc(Cl)cc2)(C(F)(F)F)C(F)(F)F)cc(C)c1NC(=O)c1cccc(NC(=O)c2cccnc2Cl)c1 [1-138]	100	100
CCc1cc(C(ON=Cc2ccc(C)cc2)(C(F)(F)F)C(F)(F)F)cc(C)c1NC(=O)c1cccc(NC(=O)c2cccnc2Cl)c1 [1-149]	100	–
CCc1cc(C(ON=Cc2ccc(OC)cc2)(C(F)(F)F)C(F)(F)F)cc(C)c1NC(=O)c1cccc(NC(=O)c2cccnc2Cl)c1 [1-150]	100	–
Cc1cc(C(Oc2cccc(C(F)(F)F)c2)(C(F)(F)F)C(F)(F)F)cc(C)c1NC(=O)c1cccc(NC(=O)c2cccnc2Cl)c1 [1-167]	100	–
Cc1cc(C(Oc2ccc(C#N)cc2)(C(F)(F)F)C(F)(F)F)cc(C)c1NC(=O)c1cccc(NC(=O)c2cccnc2Cl)c1 [1-180]	100	–
CCc1cc(C(Oc2ccc(Cl)nc2)(C(F)(F)F)C(F)(F)F)cc(C)c1NC(=O)c1cccc(NC(=O)c2cccnc2Cl)c1 [1-181]	100	–

Compound	insecticidal activity [1] [%]	insecticidal activity [2] [%]
Cc1cc(C(Oc2ccc(Cl)cc2)(C(F)(F)F)C(F)(F)F)ccc1NC(=O)c1cccc(NC(=O)c2cccnc2Cl)c1 [1-201]	100	–
Cc1cc(C(n2ccc(Cl)n2)(C(F)(F)F)C(F)(F)F)cc(C)c1NC(=O)c1cccc(NC(=O)c2cccnc2Cl)c1 [2-7]	–	100
CCc1cc(C(n2cc(Cl)cn2)(C(F)(F)F)C(F)(F)F)cc(C)c1NC(=O)c1cccc(NC(=O)c2ccccc2F)c1 [2-30]	100	–
CCc1cc(C(n2cc(Cl)cn2)(C(F)(F)F)C(F)(F)F)cc(C)c1NC(=O)c1cccc(NC(=O)c2cccc(F)c2)c1 [2-35]	100	–
CCc1cc(C(n2cc(Cl)cn2)(C(F)(F)F)C(F)(F)F)cc(C)c1NC(=O)c1cccc(NC(=O)c2ccc(F)cc2)c1 [2-36]	100	–
CCc1cc(C(n2cc(Cl)cn2)(C(F)(F)F)C(F)(F)F)cc(C)c1NC(=O)c1cccc(NC(=O)c2cccc(F)c2F)c1 [2-37]	100	–
CCc1cc(C(n2cc(Cl)cn2)(C(F)(F)F)C(F)(F)F)cc(C)c1NC(=O)c1cccc(NC(=O)c2ccc(F)cc2F)c1 [2-38]	100	–
CCc1cc(C(n2cc(Cl)cn2)(C(F)(F)F)C(F)(F)F)cc(C)c1NC(=O)c1cccc(NC(=O)c2cc(F)ccc2F)c1 [2-39]	100	–
CCc1cc(C(n2cc(Cl)cn2)(C(F)(F)F)C(F)(F)F)cc(C)c1NC(=O)c1cccc(NC(=O)c2c(F)cccc2F)c1 [2-40]	100	–
Cc1cc(C(n2ccc(Br)n2)(C(F)(F)F)C(F)(F)F)cc(C)c1NC(=O)c1cccc(NC(=O)c2cccnc2Cl)c1 [2-76, N-[3-({4-[2-(3-bromo-1H-pyrazol-1-yl)-1,1,1,3,3,3-hexafluoropropan-2-yl]-2,6-dimethylphenyl}carbamoyl)phenyl]-2-chloropyridine-3-carboxamide]	100	–
Cc1cc(C(n2cc(I)cn2)(C(F)(F)F)C(F)(F)F)cc(C)c1NC(=O)c1cccc(NC(=O)c2cccnc2Cl)c1 [2-95]	100	–
Cc1cc(C(n2ccc(C(F)(F)F)n2)(C(F)(F)F)C(F)(F)F)cc(C)c1NC(=O)c1cccc(NC(=O)c2cccnc2F)c1 [2-98]	100	–
Cc1cc(C(n2ccc(C(Cl)Cl)n2)(C(F)(F)F)C(F)(F)F)cc(C)c1NC(=O)c1cccc(NC(=O)c2cccnc2Cl)c1 [2-106]	100	–
Cc1cc(C(n2ccc(C(F)(F)C(F)(F)F)n2)(C(F)(F)F)C(F)(F)F)cc(C)c1NC(=O)c1cccc(NC(=O)c2cccnc2Cl)c1 [2-107]	100	–
Cc1cc(C(n2cc(Br)c(Br)n2)(C(F)(F)F)C(F)(F)F)cc(C)c1NC(=O)c1cccc(NC(=O)c2cccnc2Cl)c1 [2-115]	100	–
Cc1cc(C(n2cc(Cl)c(C(F)(F)F)n2)(C(F)(F)F)C(F)(F)F)cc(C)c1NC(=O)c1cccc(NC(=O)c2cccnc2Cl)c1 [2-118]	100	–
Cc1cc(C(n2cc(I)c(C(F)(F)F)n2)(C(F)(F)F)C(F)(F)F)cc(C)c1NC(=O)c1cccc(NC(=O)c2cccnc2Cl)c1 [2-119]	–	100
Cc1cc(C(n2nc(C(F)(F)F)cc2C(F)(F)F)C(F)(F)F)cc(C)c1NC(=O)c1cccc(NC(=O)c2cccnc2Cl)c1 (centres unmarked) [2-123, N-{3-[(4-{1-[3,5-bis(trifluoromethyl)-1H-pyrazol-1-yl)-2,2,2-trifluoroethyl}-2,6-dimethylphenyl)carbamoyl]phenyl}-2-chloropyridine-3-carboxamide]	100	–
Cc1cc(C(n2nc(C(F)(F)F)cc2C(F)(F)F)(C(F)(F)F)C(F)(F)F)cc(C)c1NC(=O)c1cccc(NC(=O)c2cccnc2F)c1 [2-125]	100	–
Cc1cc(C(n2cnc(C(F)(F)F)c2)(C(F)(F)F)C(F)(F)F)cc(C)c1NC(=O)c1cccc(NC(=O)c2cccnc2Cl)c1 [2-142]	100	–
CCc1cc(C(n2cncn2)(C(F)(F)F)C(F)(F)F)cc(C)c1NC(=O)c1cccc(NC(=O)c2cccnc2Cl)c1 [2-149]	100	–
Cc1cc(C(n2ncnn2)(C(F)(F)F)C(F)(F)F)cc(C)c1NC(=O)c1cccc(NC(=O)c2cccnc2Cl)c1 [2-154]	100	–
CCc1cc(C(N2CC=CC2)(C(F)(F)F)C(F)(F)F)cc(C)c1NC(=O)c1cccc(NC(=O)c2cccnc2Cl)c1 [2-170]	100	–
CCc1cc(C(OCC(F)(F)F)(C(F)(F)F)C(F)(F)F)cc(C)c1NC(=O)c1cccc(N)c1 [11-26]	100	–
